Patent US11730717B1, “Melanin-inspired antimicrobial” (The Board of Regents for the Oklahoma Agricultural and …, priority 2020, dated 2023)
Values joined by “and” are separate entries in the source; they are usually repeats but may differ in a detail not shown here. Equal entries are not always repeated. “Also recorded” adds a separate entry of the source.

Experiments:
[1] = tested on: Enterococcus faecalis (E. faecalis); assay: MIC by broth microdilution; type: cell-based
Method: (§1) The methicillin resistant Staphylococcus aureus (MRSA) and Pseudomonas aeruginosa (PA) strains used in this study are clinical isolates obtained from an adult CF patient at the Cystic Fibrosis Clinic at the OU Children's Hospital (Oklahoma City, Okla.). Escherichia coli (E. coli) and Enterococcus faecalis (E. faecalis) were obtained from American Type Culture Collection (ATCC). The strains were grown overnight with shaking at 37° C. (220 RPM) in 15 mL of Luria-Bertani (LB) broth. The overnight culture was sub-cultured the next day before use for the MIC experiments. All sub-cultures consisted of 1 mL of the overnight culture, mixed with 10 mL of Mueller Hinton broth. The working stock of the EIPE-1 and DBI was prepared by dissolving 1 mg of each in 1 mL of DMSO.
(§2) The minimum inhibitory concentrations (MICs) were determined by the broth microdilution method, following the guidelines of the Clinical and Laboratory Standards Institute (CLSI). Two-fold serial dilutions of EIPE-1, DBI, and Arm (starting with 1 mg/mL) were prepared in a 100 μL volume in 96-well microtiter plates. The dilution series included DMSO as a negative control. The bacterial culture […] was normalized to an OD600 of 0.2 and was then added to each well. Plates were incubated with shaking at 220 RPM at 37° C., and the MIC was determined based on the lowest concentration at which no visible growth of the bacterial isolate was observed.
(§3) In order to determine the MIC of EIPE-1 on MRSA, a culture of MRSA was grown overnight in Mueller Hinton broth (MHB) at 37° C., sub-cultured by a 1/100 dilution into MHB and dispensed into a 96 well culture block (900 μL of diluted culture in each well). To each well either DMSO or a serial dilution of EIPE-1 was added, then the culture was grown for 18 h at 37° C. The next day each well was tested for either growth or inhibition of growth by measuring of the OD^600 of the resulting culture. […] For comparison, the MIC of EIPE-1 was also determined against E. faecalis (8 μg/mL, 9 μM), confirming activity against Gram-positive bacteria.

[2] = tested on: methicillin resistant Staphylococcus aureus (MRSA) clinical isolate; assay: MIC by broth microdilution; type: cell-based; settings: Staphylococcus aureus, MRSA, 18 h, clinical isolate of MRSA from an adult CF patient; broth culture, 18 h at 37° C.; read-out: minimum inhibitory concentration (MIC)
Method: as §1, §2, §3

MRSA [3] = assay: Live/Dead staining and fluorescent microscopy; type: cell-based, Staphylococcus aureus
Method: MRSA was grown overnight in 10 mL of LB broth, sub-cultured (5 mL of overnight culture added to 20 mL LB) and grown for 3 h. Bacterial culture (150 μL) were removed and transferred to a 1.5 mL centrifuge tube, which was treated with DMSO, EIPE-1 (0.01 mg/mL) or DBI (0.01 mg/mL) for 30 minutes. Equal amounts of the two dyes (SYTO 9 dye, 3.34 mM in DMSO), and propidium iodide (20 mM in DMSO) were mixed. Then 0.5 μL of the dye mixture was added to each tube of treated MRSA cultures. Wet mounts were prepared on glass slides for imaging live and dead MRSA, and Differential Interference Contrast (DIC) images were obtained using a Leica DMI600B fluorescent microscope. To determine the percentage of bacteria alive and dead, the total bacteria in each condition were counted in 20 fields of view and graphed using Prism 5.0.
To address MRSA viability in response to EIPE-1 treatment, a Live/Dead staining and microscopy was utilized. MRSA was treated with either DBI or EIPE-1 (16 μg/mL, 17 μM each) for 30 minutes (DMSO was used as a negative solvent control) and then stained with the dyes, Syto™ 9 and propidium iodide.

MRSA [4] = assay: Comparison with Methicillin and Gentamicin, recoverable CFU; type: cell-based, Staphylococcus aureus; settings: compared with Methicillin and Gentamicin treatment
Method: To determine CFUs of PA and MRSA after exposure to DMSO, DBI, EIPE-1, Gentamicin or Methicillin, 10-fold serial dilutions were prepared in 96-well micro plates using multichannel pipettes. For each dilution, 25 ptL of each sample was pipetted onto a plate containing agar medium and incubated for 18 h at 37° C. The number of colonies for each dilution were counted and used to back calculate the number of bacteria per mL (CFU/mL) in each original bacterial culture.
EIPE-1 antimicrobial activity against MRSA and PA was compared to that of Methicillin and Gentamicin treatment. Bacterial cultures were grown, normalized and then exposed to either DBI, DMSO (solvent control), EIPE-1, Methicillin or Gentamicin (FIG. 3). […] This is highly significant and novel as methicillin resistance is a huge problem in hospitals and patient treatment worldwide. […] Gram-negative bacteria like PA have an outer membrane covered with lipopolysaccharides that protects the bacteria from antibiotics, dyes, and detergents from penetrating the bacterial cell.

S. lactis = assay: MIC and MBC values (Table 2); type: cell-based; settings: repeated determinations
C. neoformans = assay: Scanning electron microscopy of treated fungal cells; type: cell-based, Cryptococcus neoformans; settings: exposed at the minimum inhibitory concentration 1.749 μg/mL for 4, 8, 12 or 24 hrs
Method: C. neoformans were suspended in RPMI with MOPs, 0.165M, at a concentration of 2.0×10^6 cells/mL. RPMI Mops media was added to a 2 mL collection tube in a volume of 100 μL. […] The tubes were incubated at 35° C. in a humid incubator for set time points of 4 hrs, 8 hrs, 12 hrs, or 24 hrs. Once removed, the tubes were placed in a centrifuge for 1 min. at 5000 rpm. Media was removed. The pellet was resuspended in 2.0% glutaraldehyde in 0.1 M cacodylate buffer at a volume of 1 mL for a minimum of 2 hrs.
Fixed C. neoformans cells were placed in a centrifuge for 1 min at 5000 rpm. Media was removed and C. neoformans was rinsed 3 times in a buffered wash at fixed intervals of 15 mins. Rinsed cells were resuspended in 1% OsO4 at room temperature for 1 hr in a 36-well plate with a cover slip. 1% OsO4 was removed. C. neoformans was rinsed 3 times in a buffered wash at fixed intervals of 15 mins. C. neoformans were dehydrated in ethanol at 50%, 70%, 90%, 95%, and 100% three times at fixed intervals of 15 mins. C. neoformans were wash two times with […] at a time interval of 5 mins. Cover slips were placed on a clear sheet for 12 hrs to dry. Cover slips were mounted on stubs with silver paint. The cover slips were covered in an Au—Pd coat. […]

For `COC(=O)c1cc2c(C#Cc3ccc(OCCC[N+](C)(C)C)cc3)c(OC)c(OC)c(C#Cc3ccc(OCCC[N+](C)(C)C)cc3)c2n1C` [EIPE-1, 3,3′-((((5,6-dimethoxy-2-(methoxycarbonyl)-1-methyl-1H-indole-4,7-diyl)bis(ethyne-2,1-diyl))bis(4,1-phenylene))bis(oxy))bis(N,N,N-trimethylpropan-1-aminium) iodide], the MIC [1] was 8 µg/mL and 9 µM, the MIC [2] was 16 µg/mL and 17.1 µM and the “Live/Dead staining (green = intact membrane, red = damaged membrane)” value (MRSA [3]; 16 μg/mL, 17 μM, 30 minutes, Syto 9 and propidium iodide) was “only stained red”. The “time of exposure until biocidal activity occurred” value (MRSA [3]; MRSA) was at most 30 min, the “biocidal activity against MRSA” value (MRSA [4]) was “effective in killing MRSA; also recorded: exhibited biocidal activity” and the MBC (S. lactis) was 2 µg/mL. The “MBC (μg/mL)” value (S. lactis) was 1.000 µg/mL, the MIC (S. lactis) was 1 µg/mL and the “MIC (μg/mL)” value (S. lactis) was 0.500 µg/mL. For the same compound, the “cell wall changes by SEM” value (C. neoformans) was “structural changes to their cell wall; also recorded: changes to the cell wall shown at 4 hours”.
